Data taken from patent EP0032748B1, “Thiophene derivatives” (UBE INDUSTRIES, LTD., priority 1980, dated 1981).
Read-outs that look alike come from different tables or passages of the source.

Legend:
[1] = tested on: pear alternaria leaf spot fungus (Alternaria kikuchiana); format: in vivo; conditions: pear black spot; concentration of spray liquid 500 ppm; three days after the inoculation
[2] = tested on: pear (variety: Niju-seiki); conditions: concentration of spray liquid 500 ppm
[3] = tested on: rice seeds (variety: Asominori); assay: Test Example 10: degree of phytotoxicity on rice after seed treatment (injury rating); conditions: concentration 1000 ppm
[4] = tested on: rice brown spot fungus (Cochliobolus miyabeanus); assay: Test Example 2: control effect on paddy rice brown spot (spray on potted seedlings); conditions: Table 3, spray liquid 500 ppm, inoculation one day after spraying, lesions per leaf 5 days after inoculation
[5] = tested on: Gibberella fujikuroi; assay: Test Example 9: seed treatment against "Bakanae" disease of rice (seed disinfection ratio); conditions: concentration 1000 ppm, seed immersion at 15°C. for 24 hours, 32 days after the seeding
[6] = tested on: Phytophthora infestans; format: in vivo
[7] = tested on: rice brown spot fungus; assay: Test Example 10: seed treatment against brown spot of rice (seed disinfection ratio); conditions: concentration 1000 ppm, seed immersion, 25 days after the seeding
[8] = tested on: haricot sclerotinia rot (Sclerotinia sclerotiorum); assay: Test Example 5: control effect on haricot sclerotinia rot (spray, detached leaflets); conditions: Table 6, spray liquid 200 ppm, lesion diameter 3 days after inoculation
Procedure: On the following day, the first trifoliate leaf was cut off and the each leaflet of trifoliate leaf were placed in a 15 cm petri dish kept under moist conditions by placing a wet filter paper thereon and were inoculated on the center portion of each leaflet with a fungus-containing agar segment obtained by perforating by means of a cork borer of 8 mm in diameter an edge of a colony of a haricot sclerotinia rot (Sclerotinia sclerotiorum) cultured previously at 20°C. for 2 days in PSA medium. Three days after inoculation, the lesion diameter formed was measured by means of slide calipers and the control value (%) was obtained according to the following equation.

[9] = tested on: tomato (variety: Sekai-ichi)
[10] = tested on: rice seeds; assay: Test Example 9: degree of phytotoxicity on rice after seed treatment (injury rating); conditions: concentration 1000 ppm
[11] = tested on: hariot (variety: Taisho Kintoki)
[12] = tested on: paddy rice (variety: Asahi)
[13] = tested on: cucumber (variety: Sagami Hanjiro)
[14] = tested on: cucumber downy mildew fungus (Pseudoperonospora cubensis); format: in vivo; conditions: for Control value: Table 7, spray liquid 500 ppm, percent lesion area 5 days after inoculation
[15] = tested on: Pellicularia sasakii; format: in vivo; conditions: Table 4, spray liquid 500 ppm, paddy rice sheath blight
[16] = tested on: paddy rice; conditions: Table 4, spray liquid 500 ppm
[17] = Table 6, spray liquid 200 ppm, haricot
[18] = Table 3, spray liquid 500 ppm, paddy rice

For `O=C1C2CC=CCC2C(=O)N1SC(Cl)(Cl)Cl` (stereo not shown) [Captan, reference compound], the “Control value (%)” value [1] was 90% and the Degree of phytotoxicity [2] was 0.

For `CCCOC(=O)c1sc(C(=O)OCCC)c(OC(C)=O)c1OC(C)=O` [Compound No. 3, 3,4-Diacetoxy-2,5-di-n-propoxycarbonylthiopene], the Degree of phytotoxicity [3] was 0, the Control value [4] was 100% and the “Seed disinfection ratio (%)” value [5] was 100%. The Control value ([6]; in vivo) was 93%, the “Seed disinfection ratio (%)” value [7] was 100% and the Control value [8] was 100%. The Degree of phytotoxicity ([9]; in vivo) was 0, the Degree of phytotoxicity [10] was 0 and the Degree of phytotoxicity ([11]; in vivo) was 0. The Degree of phytotoxicity ([12]; in vivo) was 0.

Molecule `CCOC(=O)c1sc(C(=O)OCC)c(OC(=O)OC)c1OC(=O)OC` [Compound No. 22, 3,4-Dimethoxycarbonyloxy-2,5-dicarbethoxythiophene] has a Degree of phytotoxicity ([13]; Table 7, spray liquid 500 ppm) of 0, a Degree of phytotoxicity [3] of 0 and a Control value [4] of 100%. The “Seed disinfection ratio (%)” value [5] was 97%, the Control value [14] was 100% and the Control value ([6]; Table 5, spray liquid 500 ppm, tomato late blight, inoculation 3 days after spraying, observed 3 days after inoculation) was 100%. The “Seed disinfection ratio (%)” value [7] was 100%, the Control value [8] was 95% and the Degree of phytotoxicity ([9]; Table 5, spray liquid 500 ppm, tomato) was 0. For the same molecule, the Degree of phytotoxicity [10] was 0, the Degree of phytotoxicity [11, 17] was 0 and the Degree of phytotoxicity [12, 18] was 0.

In the case of `CCOC(=O)c1sc(C(=O)OCC)c(OC(=O)NC)c1OC(=O)NC` [Compound No. 50, 3,4-Bis(N-methylcarbamoyloxy)-2,5-dicarbethoxy-thiophene], the Degree of phytotoxicity ([13]; Table 7, spray liquid 500 ppm) was 0, the Degree of phytotoxicity [3] was 0 and the Control value [4] was 100%. For the same molecule, the “Seed disinfection ratio (%)” value [5] was 100%, the Control value [14] was 100% and the “Seed disinfection ratio (%)” value [7] was 100%. For the same molecule, the Degree of phytotoxicity [10] was 0 and the Degree of phytotoxicity [12, 18] was 0.

With `CCOCCOC(=O)c1sc(C(=O)OCCOCC)c(O)c1O` [Compound No. 159, 3,4-Dihydroxy-2,5-di-2'-ethoxyethoxycarbonyl-thiophene] the Control value [4] was 96%, the Control value ([6]; in vivo) was 99% and the Degree of phytotoxicity ([9]; in vivo) was 0. The Degree of phytotoxicity ([12]; in vivo) was 0.

`CCOCCOC(=O)c1sc(C(=O)OCCOCC)c(OC(=O)NC)c1OC(=O)NC` [Compound No. 161, 3,4-Di-methylcarbamoyloxy-2,5-di-2'-ethoxyethoxycarbonylthiophene] showed a Control value [4] of 100% and a Degree of phytotoxicity ([12]; in vivo) of 0.

`COCCOC(=O)c1sc(C(=O)OCCOC)c(OC(=O)COC)c1OC(=O)COC` [Compound No. 170, 3,4-Di-methoxymethylcarbonyloxy-2,5-di-2'-methoxyethoxycarbonylthiophene] was tested, and the Degree of phytotoxicity ([13]; Table 7, spray liquid 500 ppm) was 0 and the Control value [14] was 93%.

With `COC(=O)Oc1c(C(=O)OCc2ccccc2)sc(C(=O)OCc2ccccc2)c1OC(=O)OC` [Compound No. 179, 3,4-Di-methoxycarbonyloxy-2,5-dibenzyloxycarbonylthiophene] the Degree of phytotoxicity ([13]; Table 7, spray liquid 500 ppm) was 0 and the Control value [14] was 100%.

`CCNC(=O)Oc1c(C#N)sc(C(=O)OC)c1OC(=O)NCC` [Compound No. 208, 3,4-Di(N-ethylcarbamoyloxy)-2-cyano-5-methoxycarbonylthiophene] was tested, and the Degree of phytotoxicity ([13]; Table 7, spray liquid 500 ppm) was 0, the Degree of phytotoxicity [3] was 0 and the Control value [14] was 100%. For the same molecule, the “Seed disinfection ratio (%)” value [7] was 97%, the “Control value (%)” value [1] was 78% and the Degree of phytotoxicity [2] was 0.

For `CCOC(=O)c1sc(C#N)c(O)c1O` [Compound No. 210, 3,4-Dihydroxy-2-cyano-5-carbethoxythiophene], the “Control value (%)” value [1] was 100% and the Degree of phytotoxicity [2] was 0.

For `CCOC(=O)c1sc(C#N)c(OC(C)=O)c1OC(C)=O` [Compound No. 212, 3,4-Di-acetoxy-2-cyano-5-carbethoxythiophene], the “Control value (%)” value [1] was 100% and the Degree of phytotoxicity [2] was 0.

With `CCOC(=O)Oc1c(C#N)sc(C(=O)OCC)c1OC(=O)OCC` [Compound No. 216, 3,4-Di-(ethoxycarbonyloxy)-2-cyano-5-carbethoxythiophene] the Degree of phytotoxicity [3] was 0, the “Seed disinfection ratio (%)” value [7] was 100% and the Control value [8] was 75%. The Degree of phytotoxicity [11, 17] was 0.

For `CCOC(=O)c1sc(C(=O)OCC)c(OC(=O)c2cccs2)c1OC(=O)c1cccs1` [Compound No. 229, 3,4-Di-(2'-thenoyloxy)-2,5-dicarbethoxythiophene], the Degree of phytotoxicity ([13]; Table 7, spray liquid 500 ppm) was 0 and the Control value [14] was 100%.

With `COC(=O)c1sc(C(=O)c2ccccc2)c(O)c1O` [Compound No. 246, 3,4-Dihydroxy-2-carbomethoxy-5-benzoylthiophene] the Control value [8] was 100% and the Degree of phytotoxicity [11, 17] was 0.

Molecule `CCOC(=O)c1sc(C(=O)c2ccccc2)c(O)c1O` [Compound No. 247, 3,4-Dihydroxy-2-carbethoxy-5-benzoylthiophene] has a Control value [8] of 100% and a Degree of phytotoxicity [11, 17] of 0.

In the case of `CCOC(=O)c1sc(C(=O)c2ccccc2)c(OC(C)=O)c1OC(C)=O` [Compound No. 249, 3,4-Diacetoxy-2-carbethoxy-5-benzoylthiophene], the Control value [8] was 100% and the Degree of phytotoxicity [11, 17] was 0.

Molecule `CCOC(=O)c1sc(C(=O)c2ccccc2)c(OC(=O)OC)c1OC(=O)OC` [Compound No. 252, 3,4-Di(methoxycarbonyloxy)-2-carbethoxy-5-benzoylthiophene] has a Control value [8] of 90% and a Degree of phytotoxicity [11, 17] of 0.

Molecule `CCOC(=O)c1sc(C(=O)c2ccc(C)cc2)c(OC(=O)N(C)C)c1OC(=O)N(C)C` [Compound No. 287, 3,4-Di(N,N-dimethylcarbamoyloxy)-2-carbethoxy-5-(p-methylbenzoyl)-thiophene] has a Control value [8] of 90% and a Degree of phytotoxicity [11, 17] of 0.

`CCOCCC(=O)Oc1c(C(=O)OCC)sc(C(=O)OCC)c1OC(=O)CCOCC` [Compound No. 295, 3,4-Di(2'-ethoxyethylcarbonyloxy)-2,5-dicarbethoxy-thiophene] was tested, and the Control value [15] was 94% and the Degree of phytotoxicity [16] was 0.

In the case of `CN(C)C(=S)SSC(=S)N(C)C` [TMTD, reference compound], the Degree of phytotoxicity [3] was 0 and the “Seed disinfection ratio (%)” value [7] was 51%.

For `N#Cc1c(Cl)c(Cl)c(Cl)c(C#N)c1Cl` [TPN, reference compound], the Degree of phytotoxicity ([13]; concentration of spray liquid 500 ppm) was 0 and the “Control value (%)” value ([14]; concentration of spray liquid 500 ppm, five days after the inoculation) was 100%.

For `COC(=O)NC(=S)Nc1ccccc1NC(=S)NC(=O)OC` [Thiophanate-methyl, reference compound], the Control value [8] was 70%.

`OCCN1CN(CCO)CN(CCO)C1` [Triazine, reference compound] gave a Control value [4] of 90% and a Degree of phytotoxicity [12, 18] of 0.

`CNC(=O)Oc1c(C#N)sc(C(=O)OC)c1OC(=O)NC` [compound 207] showed a Degree of phytotoxicity ([13]; Table 7, spray liquid 500 ppm) of 0, a Degree of phytotoxicity [3] of 0 and a Control value [14] of 100%. For the same molecule, the “Seed disinfection ratio (%)” value [7] was 96%, the “Control value (%)” value [1] was 92% and the Degree of phytotoxicity [2] was 0.

Molecule `CCOC(=O)c1sc(C#N)c(O)c1O` [compound 211] has a Degree of phytotoxicity ([13]; Table 7, spray liquid 500 ppm) of 0 and a Control value [14] of 100%.

`CCOC(=O)c1sc(C#N)c(OC(=O)NC)c1OC(=O)NC` [compound 213] gave a Degree of phytotoxicity ([13]; Table 7, spray liquid 500 ppm) of 0, a Degree of phytotoxicity [3] of 0 and a Control value [14] of 100%. The “Seed disinfection ratio (%)” value [7] was 94%, the “Control value (%)” value [1] was 92% and the Degree of phytotoxicity [2] was 0.
